Measured values published in article PMC5650142, “GPR40 partial agonists and AgoPAMs: Differentiating effects on glucose and hormonal secretions in the rodent” (PLoS ONE, 2017).
“And” between values parts separate entries of the source, which are not always exact repeats. Identical values can stand only once.

Tests used:
[1] = system: wild type and GPR40-/- mice; test: Mouse incretin measurements (plasma glucagon, wild type and GPR40-/- mice); type: in vivo; details: for Plasma Glucagon: @ 30, individual animals (Fig 6A)
Protocol: Wild type and GPR40-/- mice were weighed the day prior to dosing. Food was removed from mice at lights on. 2 hours later mice were dosed via oral gavage (PO) at a volume of 10 ml/kg with vehicle (0.5% methylcellulose), AP1 at 30 mg/kg, or AP3 at 30 mg/kg. At 60 minutes post dose, mice were euthanized via CO2 asphyxiation. Blood was collected via cardiac puncture.
(§1) Blood for insulin, glucagon, GLP-1, GIP, and PYY measurements was collected into K2EDTA Microtainer tubes (BD, Franklin Lakes, NJ) pre-treated with DPP4 inhibitor (Millipore, Billerica, MA) and cOmplete™ Protease Inhibitor Cocktail Tablets (Roche Diagnostics, Indianapolis, IN). Tubes were centrifuged for 10 minutes at 5000 RPM, and plasma was aliquotted for analysis. Plasma insulin levels were measured via EIA (Mesoscale Discovery ELISA Kit, Gaithersburg MD). Rat plasma total GLP-1 was measured using Total GLP-1 (ver.2) Assay Kit (Cat#: K150JVC). The measurement of active GLP-1 was carried out in a similar manner as that described for total GLP-1 assay with the exception that MSD Active GLP-1 (ver. 2) assay kit (Cat# K150JWC) was used. Rat plasma glucagon was measured using an in-house glucagon assay developed as a MSD format sandwich immunoassay (Merck & Co., Inc., MRL, Kenilworth, NJ USA). The antibody specificity was cross validated via mass- spec using procedures described in Lee et al. Briefly, MSD Streptavidin Gold plates were coated with 2 μg/ml biotin mouse monoclonal antibody generated to glucagon. Test samples were added to the plates and a separate Sulfo- tagged monoclonal antibody was used to detect the captured glucagon protein (2 μg/ml). The ELISA was carried out in the standard reagents in the MSD format. The plate was read on the SECTOR Imager 6000 Reader. Metabolic hormones GIP (Gastric Inhibitory Polypeptide) and PYY (Peptide YY) were measured in rat plasma using the Rat Metabolic Magnetic Bead Panel (EMD Millipore, Billerica, MA). The assay was performed according to manufacturer protocol.

[2] = system: wild type C57BL/6 and GLP-1R-/- mice; test: Mouse glucose tolerance test (IPGTT, wild type and GLP-1R-/- mice); type: in vivo; design: Blood Glucose Net AUC: unit not given here; details: for Blood Glucose / Plasma Insulin: 30 mpk, 30 mg/kg; for Blood Glucose Net AUC: @ 30, individual animals
Protocol: Wild type C57BL/6 mice and GLP-1R^-/- mice were fed a high fat diet (D12492i, Research Diets) for 6 weeks prior to GTT. On the day of study, mice were fasted at 1 h post lights on, and body weights were measured. […] Mice were then dosed PO at a volume of 10 ml/kg with vehicle (0.5% methylcellulose), MK-2305 (a GPR40 partial agonist described in Hauge et al) at 10 mg/kg, or AP1 at 30 mg/kg. Dosages of MK-2305 and AP1 were administered at maximal efficacious doses as determined by acute dose titrations with efficacy determined via reduction in glucose during an IPGTT (data not shown). […] Blood glucose was measured again (time = 0) just prior to an intraperitoneal (IP) dextrose challenge of 1 g/kg at 10 ml/kg dose volume (Dextrose, Hospira Inc., Lake Forrest IL). A subset of vehicle treated mice was injected with 0.9% NaCl saline to serve as negative control. Blood glucose was then measured at 10, 20, 40, 60, and 120 min after challenge. To capture insulin secretion during the IPGTT, blood via tail vein was collected at t = - 60, 0, 10, 20, 40, 60 min post challenge.
Net AUC was calculated by subtracting the average AUC of the saline group from each groups’ total AUC.
as §1

[3] = GLP-1R-/- and wild type mice, MK-2305 10 mg/kg, AP1 30 mg/kg PO
[4] = KO mice, Time 0, individual animals
[5] = KO mice, Time 10, individual animals
[6] = KO mice, Time 20, individual animals
[7] = KO mice, Time 40, individual animals
[8] = KO mice, Time 60, individual animals
[9] = KO mice, Time -60, individual animals
[10] = WT mice, Time 0, individual animals
[11] = WT mice, Time 10, individual animals
[12] = WT mice, Time 20, individual animals
[13] = WT mice, Time 60, individual animals
[14] = WT mice, Time -60, individual animals

SMILES: COc1ccc(F)c(-c2ccc([C@@H]3CCc4ccc([C@H](C5CC5)[C@H](C)C(=O)O)cc4O3)cc2)c1 [AP1]
- Plasma Glucagon ([1]; KO mice): 13.34 pg/mL and 13.81 pg/mL and 52.65 pg/mL and 26.95 pg/mL and 36.14 pg/mL and 35.65 pg/mL
- circulating glucagon ([1]; WT mice, 30 mg/kg PO, 1h post dose): increase
- Plasma Glucagon ([1]; WT mice): 101.77 pg/mL and 108.33 pg/mL and 114.33 pg/mL and 421.21 pg/mL and 183.75 pg/mL and 252.53 pg/mL and 120.41 pg/mL
- blood glucose excursion during IPGTT [2, 3]: reduced
- insulin following dextrose challenge (IPGTT) [2, 3]: increased insulin following the dextrose challenge in both knockout and wild type mice
- Blood Glucose [2, 4]: 84 mg/dL and 106 mg/dL and 108 mg/dL and 102 mg/dL and 90 mg/dL and 97 mg/dL and 104 mg/dL
- Plasma Insulin [2, 4]: 1.042 ng/ml and 1.305 ng/ml and 1.695* ng/ml and 1.425 ng/ml and 1.092 ng/ml and 1.099 ng/ml and 1.131 ng/ml
- Blood Glucose [2, 5]: 140 mg/dl and 143 mg/dl (2×) and 241 mg/dl and 103 mg/dl and 112 mg/dl and 152 mg/dl
- Plasma Insulin [2, 5]: 1.818 ng/ml and 1.304 ng/ml and 8.134* ng/ml and 2.799 ng/ml and 1.233 ng/ml and 2.777 ng/ml and 1.836 ng/ml
- Blood Glucose [2, 6]: 79 mg/dL and 107 mg/dL and 145 mg/dL and 126 mg/dL and 76 mg/dL and 80 mg/dL and 104 mg/dL
- Plasma Insulin [2, 6]: 1.06 ng/ml and 0.804 ng/ml and 3.066* ng/ml and 1.963 ng/ml and 0.693 ng/ml and 1.694 ng/ml and 1.832 ng/ml
- Blood Glucose [2, 7]: 58 mg/dL and 108 mg/dL
- Plasma Insulin [2, 7]: 0.728 ng/ml and 0.449 ng/ml and 1.028* ng/ml and 0.546 ng/ml and 0.513 ng/ml and 0.552 ng/ml and 0.628 ng/ml
- Blood Glucose [2, 8]: 75 mg/dL and 116 mg/dL and 106 mg/dL and 69 mg/dL and 92 mg/dL and 78 mg/dL and 110 mg/dL
- Plasma Insulin [2, 8]: 0.445 ng/ml and 0.264 ng/ml and 0.373* ng/ml and 0.39 ng/ml and 0.327 ng/ml and 0.218 ng/ml and 0.377 ng/ml
- Blood Glucose ([2]; KO mice, Time 120, individual animals): 66 mg/dL and 102 mg/dL and 86 mg/dL and 103 mg/dL and 77 mg/dL and 71 mg/dL and 121 mg/dL
- Blood Glucose [2, 9]: 190 mg/dl and 206 mg/dl (2×) and 172 mg/dl and 181 mg/dl and 204 mg/dl and 230 mg/dl
- Plasma Insulin [2, 9]: 0.47 ng/ml and 0.396 ng/ml and 1.185* ng/ml and 0.53 ng/ml and 0.25 ng/ml and 0.347 ng/ml and 0.673 ng/ml
- Blood Glucose ([2]; KO mice, Time -90, individual animals): 196 mg/dL and 173 mg/dL and 164 mg/dL and 153 mg/dL and 203 mg/dL and 170 mg/dL and 187 mg/dL
- Blood Glucose Net AUC ([2]; KO mice): -16949 and -21574 and -17294 and -16394 and -19399 and -20469 and -21384
- Blood Glucose [2, 10]: 89 mg/dl and 78 mg/dl and 112 mg/dl and 100 mg/dl and 85 mg/dl (2×) and 93 mg/dl
- Plasma Insulin [2, 10]: 3.656 ng/ml and 8.79 ng/ml and 40.989* ng/ml and 1.246 ng/ml and 3.561 ng/ml and 1.813 ng/ml and 4.832 ng/ml
- Blood Glucose [2, 11]: 166 mg/dL and 152 mg/dL and 163 mg/dL and 220 mg/dL and 195 mg/dL and 184 mg/dL and 168 mg/dL
- Plasma Insulin [2, 11]: 14.251 ng/ml and 18.912 ng/ml and 38.822* ng/ml and 7.869 ng/ml and 14.176 ng/ml and 5.575 ng/ml and 12.785 ng/ml
- Blood Glucose [2, 12]: 91 mg/dL and 101 mg/dL and 128 mg/dL and 137 mg/dL and 134 mg/dL and 97 mg/dL and 94 mg/dL
- Plasma Insulin [2, 12]: 4.859 ng/ml and 8.657 ng/ml and 36.643* ng/ml and 4.529 ng/ml and 12.495 ng/ml and 4.309 ng/ml and 7.23 ng/ml
- Plasma Insulin ([2]; WT mice, Time 40, individual animals): 1.713 ng/ml and 4.072 ng/ml and 12.598* ng/ml and 2.583 ng/ml and 4.314 ng/ml and 1.11 ng/ml and 3.089 ng/ml
- Blood Glucose [2, 13]: 92 mg/dL and 102 mg/dL and 81 mg/dL and 87 mg/dL and 72 mg/dL and 96 mg/dL and 104 mg/dL
- Plasma Insulin [2, 13]: 1.617 ng/ml and 3.058 ng/ml and 8.765* ng/ml and 1.2 ng/ml and 2.106 ng/ml and 0.602 ng/ml and 3.057 ng/ml
- Blood Glucose ([2]; WT mice, Time 120, individual animals): 76 mg/dl and 96 mg/dl (2×) and 126 mg/dl and 113 mg/dl and 92 mg/dl and 93 mg/dl
- Blood Glucose [2, 14]: 175 mg/dL and 176 mg/dL and 194 mg/dL and 178 mg/dL and 190 mg/dL and 196 mg/dL and 226 mg/dL
- Plasma Insulin [2, 14]: 0.973 ng/ml (2×) and 2.15 ng/ml and 4.52* ng/ml and 0.764 ng/ml and 1.183 ng/ml and 1.616 ng/ml
- Blood Glucose ([2]; WT mice, Time -90, individual animals): 168 mg/dL and 146 mg/dL and 183 mg/dL and 161 mg/dL and 151 mg/dL and 156 mg/dL and 176 mg/dL
- Blood Glucose Net AUC ([2]; WT mice): -13948 and -15303 and -14628 and -14263 and -12238 and -14078 and -14253
